According to patent publication US8609643B2, “2-methylene-(20S,25R)-19,26-dinor-vitamin D analogs” (Wisconsin Alumni Research Foundation, priority 2007, dated 2013):

Assays:
[1] = Bone calcium mobilization (serum calcium) in vitamin D-deficient rats; assay type: in vivo, Sprague-Dawley rats; details: ip
Procedure: (§1) Male, weanling Sprague-Dawley rats were placed on Diet 11 (0.47% Ca) diet+AEK oil for one week followed by Diet 11 (0.02% Ca)+AEK oil for 3 weeks. The rats were then switched to a diet containing 0.47% Ca for one week followed by two weeks on a diet containing 0.02% Ca. Dose administration began during the last week on 0.02% calcium diet. Four consecutive ip doses were given approximately 24 hours apart. Twenty-four hours after the last dose, blood was collected from the severed neck and the concentration of serum calcium determined as a measure of bone calcium mobilization. The first 10 cm of the intestine was also collected for intestinal calcium transport analysis using the everted gut sac method.

[2] = Intestinal calcium transport, everted gut sac method, vitamin D-deficient rats; assay type: in vivo, Sprague-Dawley rats; details: ip, FIGS. 5A and 5B
Procedure: as §1

[3] = test system: HL-60 cells; test: HL-60 cell differentiation (nitro blue tetrazolium reduction); assay type: cell-based, Human; details: for EC50: HL-60 differentiation into monocytes, FIG. 2
Procedure: The study drugs were dissolved in ethanol and the concentrations determined using UV spectrophotometry. Serial dilutions were prepared so that a range of drug concentrations could be tested without changing the final concentration of ethanol (≦0.2%) present in the cell cultures.
Human promyelocytic leukemia (HL60) cells were grown in RPMI-1640 medium containing 10% fetal bovine serum. The cells were incubated at 37° C. in the presence of 5% CO2.
HL60 cells were plated at 1.2×10^5 cells/ml. Eighteen hours after plating, cells in duplicate were treated with drug. Four days later, the cells were harvested and a nitro blue tetrazolium reduction assay was performed (Collins et al., 1979; J. Exp. Med. 149:969-974). The percentage of differentiated cells was determined by counting a total of 200 cells and recording the number that contained intracellular black-blue formazan deposits. Verification of differentiation to monocytic cells was determined by measuring phagocytic activity (data not shown).

[4] = test system: 24-hydroxylase (24Ohase) gene promoter; test: In vitro transcription assay, luciferase reporter in ROS 17/2.8 (bone) cells; assay type: cell-based; details: ROS 17/2.8 cells, 24Ohase promoter-luciferase; FIG. 3; read-out: EC50, transcriptional activity in bone cells (24-hydroxylase gene)
Procedure: Transcription activity was measured in ROS 17/2.8 (bone) cells that were stably transfected with a 24-hydroxylase (24Ohase) gene promoter upstream of a luciferase reporter gene (Arbour et al., 1998). Cells were given a range of doses. Sixteen hours after dosing the cells were harvested and luciferase activities were measured using a luminometer.
RLU=relative luciferase units.

Row | Compound | serum calcium levels (bone calcium mobilization) ([1]; all dosages, rats on 0.02% Ca diet, FIGS. 4A and 4B) | intestinal calcium transport ([2]; 260 pmol/day) | EC50 [3] | EC50 [4] | bone calcium mobilization (serum calcium) ([1]; 260 pmol/day for 4 consecutive days, rats on 0.02% Ca diet) | bone calcium mobilization (serum calcium) ([1]; 7020 pmol/day, rats on 0.02% Ca diet) | potency in mobilizing bone calcium relative to the native hormone (times less potent) ([1]; versus 1,25(OH)2D3, rats) | intestinal calcium transport ([2]; 7020 pmol/day) | EC50 ([3]; Homo sapiens) | potency on HL-60 cell differentiation relative to 1,25(OH)2D3 (times more potent) ([3]; versus 1,25(OH)2D3)
1 | C=C1/C(=C\C=C2/CCC[C@]3(C)[C@@H]([C@H](C)CCCC(C)(C)O)CC[C@@H]23)C[C@@H](O)C[C@@H]1O [1,25(OH)2D3, 1α,25-dihydroxyvitamin D3, reference compound] | increased serum calcium levels at all dosages | promotes a significant increase | 2 nM | 0.2 nM |  |  |  |  |  | 
2 | C=C1[C@H](O)CC(=C/C=C2\CCC[C@@]3(C)C2CC[C@@H]3[C@@H](C)CCC[C@@H](C)O)C[C@H]1O (stereo partly drawn) [SR1, 2-methylene-(20S,25R)-19,26-dinor-1α,25-dihydroxyvitamin D3] |  | promotes intestinal calcium transport only slightly |  | 0.01 nM | did not result in mobilization of bone calcium | without any substantial effect | approximately 30 times | significant intestinal calcium transport activity was recorded | 0.1 nM | about 10 times
